The target of the experiment is T1, GCC-bOBP (monomeric triple mutant of bovine odorant binding protein) (Bos taurus, UniProt P07435, W64C/INS121G/H155C).
T1 construct: GCC-bOBP, deswapped monomeric triple mutant
T1 sequence (P07435 with tags, fused parts or gaps W64C/INS121G/H155C): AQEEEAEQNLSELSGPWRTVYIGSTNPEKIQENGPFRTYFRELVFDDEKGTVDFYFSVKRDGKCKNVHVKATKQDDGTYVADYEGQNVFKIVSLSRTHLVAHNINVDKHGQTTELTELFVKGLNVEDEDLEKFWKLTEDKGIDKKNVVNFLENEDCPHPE
Briefly: fluorescence titration (direct AMA fluorescence, excitation […] nm; FRET from Trp, excitation […] nm, gave Kd […]), pH […] °C.

As usually defined, the Kd is a measure of binding affinity in units of concentration. The low end stands for a tighter complex, the high end for a looser complex. Compound `Nc1cccc2cc3ccccc3cc12` [AMA, 1-aminoanthracene] came in with a Kd of 5 ± 0.2 µM.

Values taken from paper PMC3127118, “Characterization of a Deswapped Triple Mutant Bovine Odorant Binding Protein” (2011).
